The values below come from patent US3950387A, “Cysteine derivatives” (Recherches Pharmaceutiques et Scientifiques, priority 1972, dated 1976).

What is called MTD is the highest dose tested that stayed within the study's limit of toxicity. A low value points to a narrow tolerated range.

One data set has as its system aortic cholesterol. In words: Aortic cholesterol in cholesterol-fed rabbits (Folch extraction, Liebermann-Burchard method). The following applies: rabbit. Format: in vivo, rabbit (male albino Bouscat). An excerpt: (§1) 2. Effect on atheromatic deposits in the aorta and on plasma cholesterol in the rabbit
(§2) In order to create atheromatic lesions experimentally, male albino Bouscat rabbits having an average weight of 2.5 kg are fed on a Provende UAR rabbit diet plus 1 or 2% of cholesterol.
(§3) At the end of 11 to 12 weeks, the animals are sacrificed by having their carotid arteries cut after being anaesthetised with Nembutal and the aorta is removed from lowermost point to the iliac fork, cut open longitudinally and spread out upon a cork board. After fixing with formaldehyde and staining with a 2% aqueous solution of acid fuchsin, pearly white atheromatic spots are apparent against the red background which enables the extent of the deposit to be evaluated quantitatively on a scale from 0 to 5 with 0 corresponding to an absence of lesions and 5 to diffuse lipid deposits covering the whole of the endothelium.
After the inside layers of the wall of the aorta have been separated, all the lipids are extracted by the method of Folch et at. The amount of cholesterol is then determined using the Liebermann-Burchard method.
(§4) In a first test, 60 male rabbits each weighing 2.5 kg are fed on the diet detailed below:
(§5) 5 weeks : diet containing 2% of cholesterol
(§6) 3 weeks : diet containing 1% of cholesterol
(§7) From the beginning the animals are divided into 6 batches of 10 animals each which respectively receive, for the whole duration of the diet, the following products for 5 days per week by the digestive route using an oesophagal probe:
(§8) All the products are administered in suspension in the same volume of gum arabic (5 ml).
(§9) At the end of 12 weeks, visual examination of the atheromatic lesions in the aorta gave the results shown in Table II, the numerical data giving the average extent of deposit in each batch.
(§10) In a second test, using the same experimental method, the two following derivatives were studied in the doses indicated below: […]

The next data set concerns plasma cholesterol. In words: Plasma cholesterol in cholesterol-fed rabbits (Pearson method, Technicon auto-analyser). The conditions noted are these: rabbit. Type of data set: in vivo, rabbit (male albino Bouscat). The protocol: as §1, §2
Moreover, a check on the plasma cholesterol is carried out at regular intervals during the test using the Pearson method as adopted to the Technicon auto-analyser by Boy, Bonnafe and Mazet (Applicant's own method).
as §4, §5, §6, §7, §8, §9, §10

Data set [1] in a line: Toxicity: maximum tolerated dose in the mouse, oral route. The following applies: in vivo.
Data set [2] deals with atheromatic deposits in the aorta. In words: Effect on atheromatic deposits in the aorta (visual examination, scale 0 to 5) in cholesterol-fed rabbits. Format: in vivo, rabbit (male albino Bouscat). The conditions noted are these: for Extent of atheromatic deposit: rabbit; for Activity ranking (anti-atheromatic): conclusion over both tests in rabbits.
Text: as §1, §2, §3, §4, §5, §6, §7, §8, §9, §10

The nature of data set [3]: Solubility in the standard solvents. Type of data set: physicochemical. The following applies: all the standard solvents.
The mark [4] stands for this setting: first test, 200 mg/kg oral (oesophagal probe), 5 days per week, 12 weeks, diet only 20.43.
The mark [5] stands for this setting: first test, 200 mg/kg oral (oesophagal probe), 5 days per week, 12 weeks, diet only 1.47.
Setting [6] is: first test, 200 mg/kg oral (oesophagal probe), 5 days per week, 12 weeks, scale 0 (no lesions) to 5 (diffuse deposits), batch average, diet only 3.5.
The mark [7] stands for this setting: second test, 50 mg/kg, same experimental method, diet only 22.1.
[8] abbreviates: second test, 50 mg/kg, same experimental method, diet only 2.5.
The mark [9] stands for this setting: second test, 50 mg/kg, same experimental method, scale 0 to 5, diet only 4.

Structures can show the parent of a compound that is named as a salt. Some results are limits rather than exact numbers.

Regarding `N[C@@H](CSCC=Cc1ccccc1)C(=O)O` [LJ 536, L β-(3-phenyl-propen-2-ylthio) α-amino propanoic acid], the Aortic cholesterol with aortic cholesterol (setting [4]) is listed as 12.21 mg/kg. The compound further had a Plasma cholesterol in the data set on plasma cholesterol (setting [5]) of 1.2 g/L. This compound came in with an MTD in data set [1] of 4000 mg/kg. In addition, the “Extent of atheromatic deposit” value in data set [2] (setting [6]) is on record as 2.05.

The compound `CC(=Cc1ccccc1)CCSC[C@H](N)C(=O)O` [LJ 540, L β-(4-phenyl-3-methylbuten-3-ylthio) α-aminopropanoic acid] came in with an Aortic cholesterol with aortic cholesterol (setting [4]) of 15.00 mg/kg. The compound further displayed a Plasma cholesterol in the data set on plasma cholesterol (setting [5]) of 1.29 g/L. In addition, the MTD in data set [1] was not below 10000 mg/kg. For the same compound, the “Extent of atheromatic deposit” value in data set [2] (setting [6]) is reported as 2.60.

In the case of `C=CCSC[C@H](NC(=O)CC[C@H](N)C(=O)O)C(=O)NCC(=O)O` [LJ 545, L γ-glutamyl-S-allylcysteinyl glycine], the Aortic cholesterol in the data set with aortic cholesterol (setting [4]) worked out at 14.38 mg/kg. Further, the Plasma cholesterol in the data set with plasma cholesterol (setting [5]) was found to be 1.36 g/L. In data set [1], this compound displayed a maximum tolerated dose (MTD) not below 10000 mg/kg. For the same compound, the “Extent of atheromatic deposit” value in data set [2] (setting [6]) is 2.70.

Compound `N[C@@H](CSCc1cccnc1)C(=O)O` [LJ 546, L β-[(pyridyl-3)methylthio]α-amino propanoic acid] showed an Aortic cholesterol in the data set on aortic cholesterol (setting [4]) of 10.72 mg/kg. The same compound gave a Plasma cholesterol in the data set with plasma cholesterol (setting [5]) of 0.99 g/L. The same compound displayed an MTD in data set [1] of 9000 mg/kg. Moreover, the “Activity ranking (anti-atheromatic)” value in data set [2] was “the most active”. Further, the “Extent of atheromatic deposit” value in data set [2] (setting [6]) worked out at 1.85.

Turning to `CC(SC[C@H](N)C(=O)O)c1ccc(Cl)cc1` (stereo partly drawn) [LJ 550, L β-[1-(p-chlorophenyl)ethylthio]α-amino propanoic acid], the Aortic cholesterol in the data set on aortic cholesterol (setting [4]) is 11.90 mg/kg. In addition, in data set [3], the Solubility result was “practically insoluble in all the standard solvents”. In the data set with plasma cholesterol (setting [5]), this compound returned a Plasma cholesterol of 1.17 g/L. For the same compound, the maximum tolerated dose (MTD) in data set [1] stood at 4000 mg/kg. In data set [2], the “Activity ranking (anti-atheromatic)” value is listed as “the most active”. In addition, in data set [2] (setting [6]), the “Extent of atheromatic deposit” value was found to be 2.

In data set [1], `CC(C)=CCC/C(C)=C/CSC[C@H](N)C(=O)O` [LJ 558, S-geranylcysteine] returned an MTD of 8000 mg/kg.

For the compound `C=CCSC[C@H](N)C(=O)OCC` [LJ 565, Ethyl L β-(propen-2-ylthio) α-amino propanoate hydrochloride], the Aortic cholesterol in the data set with aortic cholesterol (setting [7]) is on record as 15 mg/kg. The Plasma cholesterol in the data set on plasma cholesterol (setting [8]) was 2.1 g/L. The maximum tolerated dose (MTD) in data set [1] was determined as 1500 mg/kg. The “Activity ranking (anti-atheromatic)” value in data set [2] was “the most active”. In data set [2] (setting [9]), the “Extent of atheromatic deposit” value was determined as 2.3.

`C=CCSC[C@H](N)C(=O)OC(C)C` [LJ 566, Isopropyl L β-(propen-2-ylthio) α-aminopropanoate hydrochloride] displayed an Aortic cholesterol in the data set with aortic cholesterol (setting [7]) of 17.3 mg/kg. The compound also had a Plasma cholesterol in the data set on plasma cholesterol (setting [8]) of 2.3 g/L. For the same compound, the MTD in data set [1] came to 1500 mg/kg. The “Activity ranking (anti-atheromatic)” value in data set [2] is “the most active”. The “Extent of atheromatic deposit” value in data set [2] (setting [9]) was determined as 2.8.
